Laboratory results taken from patent US9006454B2, “Dihydroorotate dehydrogenase inhibitors” (Merck Serono S.A., priority 2009, dated 2015).

Key:
DHODH = DHODH (Homo sapiens (Human), UniProt Q02127); assay: DHODH activity assay (coupled enzyme assay, DCIP reduction, absorbance at 610 nm); format: biochemical; details: for inhibition at 10 µM: compound at 10 uM, read-out: inh @ 10 uM hDHODH (%)
Procedure: The DHODH activity assay is a coupled enzyme assay in which oxidation of DHO and subsequent reduction of ubiquinone are stoichiometrically equivalent to the reduction of DCIP ([…]). The reduction of DCIP is accompanied by a loss of absorbance at 610 nm.
Buffer Preparation: 50 mM tris HCl, 150 mM KCl, and pH 8.0, 0.8% triton.
5 μL of Dimethyl sulfoxide or a compound of formula I in DMSO solution was added to the wells of a 96 well plate. Compounds of formula I were measured at 10 μM.
Protein along with buffer was added, so that the total volume including the DMSO was 87 μL. Compound and protein were incubated for half an hour at room temperature after mixing. 5 μL of 20 mM solution of L-Dihydroorotic acid, 5 μL of 2 mM solution of Decylubiquinone and 3 μL of 2 mM solution of 2,6-Dichloroindophenol sodium salt hydrate were added to the above solution (total assay volume 100 μL). The mixture was stirred for 2 min and absorbance was recorded at every 10 min at 610 nanometers.
Percent Inhibition is Calculated as Follows
Positive control contains DMSO, buffer, enzyme and substrates
No Enzyme reaction contains DMSO, buffer and substrates
IC50 determination: • A 2 mM DMSO stock of the compound of formula I to be examined was prepared. ⅓rd dilutions were made as follows:
5 μL of each stock of compound of formula I (solution indicated in column 4 of table) was used for each 100 μL assay. Therefore, 5 μL of the 2 mM stock provided 100 μL of 100 μM solution of compound of formula I, when made up with buffer, protein and substrate. See also: Ulrich et al. (2001) Eur. J. Biochem. 268, 1861-1868.

Jurkat cells = assay: Measurement of cell proliferation (Jurkat cell), XTT assay; format: cell-based; details: Homo sapiens, Jurkat; for inhibition at 1 µM: compound at 1 uM, read-out: % inh Jurkat_cells @ 1 uM (%); for EC50: 72 h, XTT cell viability
Procedure: See also Roehm, N et al [1991] An improved colorimetric assay for cell proliferation and viability utilizing the tetrazolium salt XTT. J. Immunol. Methods 142:257-265.
Culture Jurkat cells in T-25 flasks at a density of 0.2×10^6/ml 2-3 days before the day of experiment set up.
Centrifuge Jurkat T-cell suspension at 1200 rpm for 10 minutes and resuspend cells again in fresh RPMI medium with 10% FBS.
Count the cells and dilute suspension to a density of 2×10^6 cells/ml. Seed 50 μL of this suspension in each well of a 96 well plate (100,000 cells per well). Keep the edges of the plate empty to avoid evaporation.
Serially dilute DMSO stocks of compounds to get different concentrations for an EC50 curve. 50 μL of compound diluted in media (2× concentration required in well) is added to each well. DMSO concentration should be kept constant at 0.25-0.5% for all wells.
Typically, for all compounds with IC50<1 μM, compound concentration can start at 10 μM followed by half log dilutions for a total of 8-10 concentrations. Each concentration has to be tested in triplicate.
Include controls such as cells without compound (with same DMSO concentration as compound wells), and media control
Incubate the 96 well plate in a CO2 incubator at 37° C. for 72 hrs before determining cell viability using XTT assay
XTT assay: to each well, add 50 μL of 1 mg/ml XTT solution with 20 μl of PMS/mL. Read the plates after 2 hours at 465 nm using the spectrophotometer. XTT reading for media without cells is used as background reading.
Calculate % cell viability assuming that the cells without compound are 100% viable.
Plot % cell viability as a function of concentration and determine EC50 by using software such as Graph Pad Prism to fit the curve.

Chain of DHODH (Q02127 whole entry): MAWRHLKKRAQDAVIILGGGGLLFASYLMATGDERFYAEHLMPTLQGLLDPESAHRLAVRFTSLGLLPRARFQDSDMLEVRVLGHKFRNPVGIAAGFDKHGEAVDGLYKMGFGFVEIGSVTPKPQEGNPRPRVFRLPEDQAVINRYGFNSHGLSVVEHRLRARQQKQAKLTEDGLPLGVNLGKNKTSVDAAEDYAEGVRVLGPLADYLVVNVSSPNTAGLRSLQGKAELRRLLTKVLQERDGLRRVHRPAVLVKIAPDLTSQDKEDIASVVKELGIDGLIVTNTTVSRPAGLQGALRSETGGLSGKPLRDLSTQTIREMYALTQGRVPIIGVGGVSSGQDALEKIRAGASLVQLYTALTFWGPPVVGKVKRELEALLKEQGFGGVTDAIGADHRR

| Compound | IC50 (DHODH) | inhibition at 10 µM (DHODH) | EC50 (Jurkat cells) | inhibition at 1 µM (Jurkat cells) |
| --- | --- | --- | --- | --- |
| CONC(=O)c1cc(C)cc2nc(-c3c(F)c(F)c(-c4ccccc4)c(F)c3F)[nH]c12 [I98] | 2200 nM | 66.2% | – | 30.1% |
| Cc1cc(C(=O)O)c2c(c1)nc(-c1ccc(-c3ccc(O)cc3)cc1)n2CCO [I97] | 2140 nM | 80% | – | 37.6% |
| O=C(O)c1cccc2nc(-c3c(F)c(F)c(-c4cccc(OCc5ccccc5)c4)c(F)c3F)[nH]c12 [I107] | 26 nM | 108% | – | 99% |
| Cc1cc(C(=O)NC2CC2)c2[nH]c(-c3c(F)c(F)c(-c4ccccc4)c(F)c3F)nc2c1 [I163] | – | 75.6% | – | 37.7% |
| O=C(O)c1cccc2[nH]c(-c3ccc(-c4ccccc4OCc4ccccc4)cc3)nc12 [I169] | – | 72% | – | 22% |
| Cc1cc(C(=O)O)c2nc(-c3c(F)c(F)c(-c4cc(F)cc(F)c4)c(F)c3F)[nH]c2c1 [I146] | 21 nM | 96.4% | 13 nM | 89.9% |
| Cc1cc(C(=O)O)c2nc(-c3c(F)c(F)c(-c4ccc(CN5CCCCC5)cc4)c(F)c3F)[nH]c2c1 [I83, 6-Methyl-2-(2,3,5,6-tetrafluoro-4′-piperidin-1-ylmethyl-biphenyl-4-yl)-1H-benzoimidazole-4-carboxylic acid] | 78 nM | 111% | – | 93% |
| Cc1cc(C(=O)NC2CCCC2)c2[nH]c(-c3c(F)c(F)c(-c4ccccc4)c(F)c3F)nc2c1 [I158] | – | 48.5% | – | 6.5% |
| O=C(O)c1cccc2[nH]c(-c3ccc(Oc4ccccc4)cc3)nc12 [I10] | 2870 nM | 80.3% | – | 35.1% |
| O=C(O)c1cccc2[nH]c(-c3c(F)c(F)c(-c4ccc(F)c(F)c4)c(F)c3F)nc12 [I130] | 1220 nM | 66.9% | – | 23.2% |
| O=C(O)c1cccc2nc(-c3c(F)c(F)c(-c4cccs4)c(F)c3F)[nH]c12 [I124] | 500 nM | 104% | – | 80.1% |
| O=C(O)c1cccc2[nH]c(-c3c(F)c(F)c(-c4ccc(OCc5ccccc5)cc4)c(F)c3F)nc12 [I132] | 378 nM | 91.5% | – | 67.8% |
| Cn1cc(-c2ccc(-c3nc4cccc(C(=O)O)c4[nH]3)cc2)cn1 [I186] | – | 31.9% | – | 13.5% |
| Cc1cc(C(=O)O)c2[nH]c(-c3ccc(-c4cccc(OCCC5CCNCC5)c4)cc3)nc2c1 [I153] | – | 53.4% | – | 15.1% |
| N#Cc1ccc(Oc2ccc(-c3nc4cccc(C(=O)O)c4[nH]3)cc2)cc1 [I77, 2-[4-(4-Cyano-phenoxy)-phenyl]-3H-benzoimidazole-4-carboxylic acid] | – | 34.6% | – | 11.5% |
| O=C(O)c1cccc2[nH]c(-c3ccc(-c4ccc(OCc5cccnc5)cc4)cc3)nc12 [I184] | – | 53.3% | – | 25.4% |
| Cc1ccc(C)n1-c1ccc(-c2nc3cccc(C(=O)O)c3[nH]2)cc1 [I185] | – | 59.4% | – | 21.5% |
| COc1cc(-c2nc3c(C(=O)O)cccc3[nH]2)cc(OC)c1-c1ccccc1 [I20] | 975 nM | 93.2% | 1000 nM | 67.1% |
| Cc1cc(C(=O)O)c2[nH]c(-c3c(F)c(F)c(-c4cccc(O)c4)c(F)c3F)nc2c1 [I104] | 13.5 nM | 104% | – | 110% |

Now from value to molecule, other results behind:

| IC50 (DHODH) | inhibition at 10 µM (DHODH) | EC50 (Jurkat cells) | Compound | inhibition at 1 µM (Jurkat cells) |
| --- | --- | --- | --- | --- |
| 6.8 nM | 103% | 18 nM | Cc1cc(C(=O)O)c2nc(-c3c(F)c(F)c(-c4ccccc4)c(F)c3F)[nH]c2c1 [I41] | 103% |
| 3790 nM | 65.2% | – | O=C(O)c1cccc2[nH]c(-c3ccc(-c4cccc(F)c4)cc3)nc12 [I17] | 23.5% |
| – | 80.4% | – | O=C(O)c1cccc2[nH]c(-c3ccc(-c4cccc(F)c4F)cc3)nc12 [I60] | 33.4% |
| 350 nM | 102% | – | Cc1cc(C(=O)O)c2nc(-c3ccc(-c4ccc(O)cc4)cc3)[nH]c2c1 [I117] | 76% |
| 1230 nM | 87% | – | Cc1cc(C(=O)O)c2nc(-c3ccc(-c4ccc(OCc5ccccc5)cc4)cc3)[nH]c2c1 [I143] | 42.2% |
| – | 39.9% | – | O=C(O)c1cccc2[nH]c(-c3ccc(-c4ccc(OC(F)(F)F)cc4)cc3)nc12 [I16] | 18% |
| 1680 nM | 88.4% | – | Cc1cc(C(=O)O)c2nc(-c3ccc(-c4cccs4)cc3)[nH]c2c1 [I149] | 47.5% |
| – | 12.5% | – | CC(=O)c1cccc2[nH]c(-c3ccc(-c4ccccc4)cc3)nc12 [I69, 1-(2-Biphenyl-4-yl-1H-benzoimidazol-4-yl)-ethanone] | 9.2% |
| 1570 nM | 83.2% | – | O=C(O)c1cccc2[nH]c(-c3ccc(Oc4c(F)cccc4F)cc3)nc12 [I56] | 38.8% |
| 574 nM | 96.7% | 388 nM | O=C(O)c1cc(Br)cc2[nH]c(-c3ccc(-c4ccccc4)cc3)nc12 [I6] | – |
| – | 82.7% | – | Cc1cc(C(=O)O)c2nc(-c3ccc(-c4ccccc4O)cc3)[nH]c2c1 [I167] | 34.5% |
| 795 nM | 93.9% | 645 nM | O=C(O)c1cccc2[nH]c(-c3ccc(-c4ccccc4)cc3)nc12 [I1] | – |
| – | 53.3% | – | Cc1cc(C(=O)O)c2nc(-c3ccc(-c4ccc(Oc5ccc(C#N)cc5)cc4)cc3)[nH]c2c1 [I178] | 37.6% |
| – | 39.8% | – | Cc1cc(C(=O)O)c2nc(-c3c(F)c(F)c(Oc4ccccc4)c(F)c3F)[nH]c2c1 [I189] | 3% |
| 898 nM | 84.4% | – | Cc1cc(C(=O)O)c2nc(-c3ccc(-c4cccc(F)c4F)cc3)[nH]c2c1 [I52] | 56.7% |
| – | 40.3% | – | Cc1cc(C(=O)O)c2nc(-c3ccc(-c4nc5ccccc5s4)cc3)[nH]c2c1 [I47] | 17.3% |
| 1730 nM | 65% | – | Cc1cc(C(=O)O)c2nc(-c3ccc(-c4ccc(OCc5ccncc5)cc4)cc3)[nH]c2c1 [I114] | 49% |
| – | 68.1% | – | O=C(O)c1cccc2nc(-c3ccc(-c4ccc(F)cc4F)cc3F)[nH]c12 [I30] | 31.5% |
| 2230 nM | 88.1% | – | Cc1cc(C(=O)O)c2nc(-c3ccc(-c4ccc(OCc5ccccn5)cc4)cc3)[nH]c2c1 [I119] | 40.3% |
| 6640 nM | 59.7% | – | Cc1cc(C(=O)O)c2nc(-c3ccc(-c4ccc(C(=O)NC5CCNCC5)cc4)cc3)[nH]c2c1 [I92] | 16.3% |
| 1840 nM | 82% | – | O=C(O)c1cccc2nc(-c3ccc(-c4c(F)cccc4F)cc3)[nH]c12 [I65] | 43% |
| – | 43% | – | Cc1cc(C(=O)O)c2nc(-c3ccc(-c4ccc(S(N)(=O)=O)cc4)cc3)[nH]c2c1 [I174] | 9% |
| – | 69.6% | – | O=C(O)c1cccc2nc(-c3ccc(-c4ccc(F)cc4F)cc3)[nH]c12 [I32] | 21.1% |
| 2240 nM | 65.1% | – | Cc1cc(C(=O)O)c2nc(-c3ccc(-c4ccc(Oc5ccccc5C(=O)O)cc4)cc3)[nH]c2c1 [I137] | 31% |
| – | 77.8% | – | Cc1cc(C(=O)O)c2nc(-c3ccc(-c4ccsc4)cc3)[nH]c2c1 [I23] | 33.9% |
